28 compounds from ChEMBL document CHEMBL4837263, “N-Aromatic-Substituted Indazole Derivatives as Brain-Penetrant and Orally Bioavailable JNK3 Inhibitors” (ACS Med Chem Lett, 2021) can be followed below.

The target in data set [1] is Mitogen-activated protein kinase 10 (Homo sapiens, UniProt P53779). The experiment in a line: Inhibition of JNK3alpha1 (unknown origin) using biotinylated FL-ATF-2 as substrate measured after 22 mins by homogeneous time-resolved fluorescence analysis.
Data set [2] deals with Mitogen-activated protein kinase 8 (Homo sapiens, UniProt P45983). The experiment in a line: Inhibition of JNK1 (unknown origin) using biotinylated FL-ATF-2 as substrate measured after 22 mins by homogeneous time-resolved fluorescence analysis.
For data set [3], the target named is Mitogen-activated protein kinase 14 (Homo sapiens, UniProt Q16539). The data set is described as follows: Inhibition of p38 alpha (unknown origin) using biotinylated FL-ATF-2 as substrate measured after 22 mins by homogeneous time-resolved fluorescence analysis.
Data set [4] addresses Voltage-gated inwardly rectifying potassium channel KCNH2 (Homo sapiens, UniProt Q12809). The data set is described as follows: Inhibition of human ERG expressed in CHO cells at -80 mV holding potential by automated Qpatch electrophysiological method. (The patch-clamp technique gives a direct electrical read-out from membranes.)
A short description of data set [5]: Selectivity index, ratio of IC50 for JNK1 (unknown origin) to IC50 for JNK3 (unknown origin).
Data set [6] is described as follows: Selectivity index, ratio of IC50 for p38 alpha (unknown origin) to IC50 for JNK3 (unknown origin).
In data set [7] the target is Mitogen-activated protein kinase 9 (Homo sapiens, UniProt P45984). The data set is described as follows: Inhibition of JNK2 (unknown origin) using biotinylated FL-ATF-2 as substrate measured after 22 mins by homogeneous time-resolved fluorescence analysis.
Data set [8] in a line: Selectivity index, ratio of IC50 for JNK2 (unknown origin) to IC50 for JNK3 (unknown origin).
In data set [9] the target is T1, CYP1A2 (Homo sapiens, UniProt P05177).
T1 sequence (P05177 whole entry): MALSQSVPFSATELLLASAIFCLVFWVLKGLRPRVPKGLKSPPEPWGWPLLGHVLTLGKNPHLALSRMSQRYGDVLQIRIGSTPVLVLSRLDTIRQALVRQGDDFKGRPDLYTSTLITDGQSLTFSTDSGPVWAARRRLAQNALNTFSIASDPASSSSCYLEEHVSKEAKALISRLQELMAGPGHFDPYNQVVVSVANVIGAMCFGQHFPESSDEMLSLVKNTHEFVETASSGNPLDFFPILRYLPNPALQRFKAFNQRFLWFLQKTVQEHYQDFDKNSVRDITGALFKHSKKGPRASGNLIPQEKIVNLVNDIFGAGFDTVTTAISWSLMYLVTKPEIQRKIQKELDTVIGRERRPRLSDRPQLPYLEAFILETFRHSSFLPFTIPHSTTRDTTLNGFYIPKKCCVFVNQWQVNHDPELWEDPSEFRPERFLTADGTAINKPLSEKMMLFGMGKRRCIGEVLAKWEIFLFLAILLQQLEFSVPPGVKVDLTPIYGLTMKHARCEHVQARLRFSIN
The experiment in a line: Inhibition of CYP1A2 (unknown origin) assessed as phenaceten demethylation to acetaminophen at 10 uM by cocktail inhibition assay relative to control. Particulars: probe phenacetin (demethylation to acetaminophen).

For data set [10], the target named is CYP2C9 (Homo sapiens, UniProt P11712). The data set is described as follows: Inhibition of CYP2C9 (unknown origin) assessed as tolbutamide hydroxylation to hydrocytolbutamide at 10 uM by cocktail inhibition assay relative to control. The conditions noted are these: probe tolbutamide (hydroxylation to hydroxytolbutamide).
Data set [11] addresses CYP2D6 (Homo sapiens, UniProt P10635). The data set is described as follows: Inhibition of CYP2D6 (unknown origin) assessed as bufuralol hydroxylation to 4'-hydroxy bufuralol at 10 uM by cocktail inhibition assay relative to control. Particulars: probe bufuralol (hydroxylation to 4'-hydroxy bufuralol).
The target in data set [12] is CYP3A4 (Homo sapiens, UniProt P08684). The data set is described as follows: Inhibition of CYP3A4 (unknown origin) assessed as midazolam hydroxylation to 1'-hydroxy midazolam at 10 uM by cocktail inhibition assay relative to control. The conditions noted are these: probe midazolam (hydroxylation to 1'-hydroxy midazolam).
The nature of data set [13]: Stability in human liver microsome assessed as half life. The conditions noted are these: liver microsomes. Format: ADME. On the technique in general: Microsomes from liver hold many membrane-bound enzymes, among them those of drug oxidation.
Data set [14] in a line: Stability in mouse liver microsome assessed as half life. The data set is classed as ADME. The conditions noted are these: liver microsomes.
In data set [15] the test system is SH-SY5Y. The data set is described as follows: Cytotoxicity against human SH-SY5Y cells assessed as reduction in cell viability at 10 uM measured after 48 hrs by MTT assay. The data set is classed as cell-based. For orientation: Tetrazolium dyes change colour on reduction, which living cells bring about.

pIC50: −log10 of the molar value.

Chain of Voltage-gated inwardly rectifying potassium channel KCNH2 (Q12809 whole entry): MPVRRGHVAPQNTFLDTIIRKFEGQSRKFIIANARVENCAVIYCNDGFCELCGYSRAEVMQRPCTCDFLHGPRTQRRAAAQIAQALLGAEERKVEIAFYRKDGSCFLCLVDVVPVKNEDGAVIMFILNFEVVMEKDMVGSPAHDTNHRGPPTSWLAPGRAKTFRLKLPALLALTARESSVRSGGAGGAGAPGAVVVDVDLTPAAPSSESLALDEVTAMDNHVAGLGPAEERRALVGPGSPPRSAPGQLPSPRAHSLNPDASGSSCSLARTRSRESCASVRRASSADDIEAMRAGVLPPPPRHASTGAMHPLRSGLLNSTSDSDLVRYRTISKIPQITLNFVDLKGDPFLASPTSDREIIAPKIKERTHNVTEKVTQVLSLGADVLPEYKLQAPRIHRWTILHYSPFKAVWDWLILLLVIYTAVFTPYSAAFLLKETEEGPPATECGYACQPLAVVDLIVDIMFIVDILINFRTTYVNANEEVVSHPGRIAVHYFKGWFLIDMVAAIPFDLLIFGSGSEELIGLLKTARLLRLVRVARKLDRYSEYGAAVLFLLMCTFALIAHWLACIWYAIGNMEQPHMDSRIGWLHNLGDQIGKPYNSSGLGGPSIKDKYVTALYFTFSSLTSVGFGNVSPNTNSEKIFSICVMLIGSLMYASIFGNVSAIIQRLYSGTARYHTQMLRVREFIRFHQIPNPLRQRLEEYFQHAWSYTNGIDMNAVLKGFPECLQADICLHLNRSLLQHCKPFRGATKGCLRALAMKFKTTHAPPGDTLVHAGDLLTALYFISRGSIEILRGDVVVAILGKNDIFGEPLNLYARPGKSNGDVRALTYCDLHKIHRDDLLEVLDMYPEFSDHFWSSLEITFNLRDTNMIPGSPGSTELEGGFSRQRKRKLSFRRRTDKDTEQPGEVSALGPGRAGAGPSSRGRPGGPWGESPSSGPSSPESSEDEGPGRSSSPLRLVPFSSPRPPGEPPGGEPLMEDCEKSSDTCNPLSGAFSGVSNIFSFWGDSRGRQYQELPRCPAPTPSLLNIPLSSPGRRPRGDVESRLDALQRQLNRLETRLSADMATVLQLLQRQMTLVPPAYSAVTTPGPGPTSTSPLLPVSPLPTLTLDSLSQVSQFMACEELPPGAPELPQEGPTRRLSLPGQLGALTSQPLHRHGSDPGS
Chain of Mitogen-activated protein kinase 8 (P45983 whole entry): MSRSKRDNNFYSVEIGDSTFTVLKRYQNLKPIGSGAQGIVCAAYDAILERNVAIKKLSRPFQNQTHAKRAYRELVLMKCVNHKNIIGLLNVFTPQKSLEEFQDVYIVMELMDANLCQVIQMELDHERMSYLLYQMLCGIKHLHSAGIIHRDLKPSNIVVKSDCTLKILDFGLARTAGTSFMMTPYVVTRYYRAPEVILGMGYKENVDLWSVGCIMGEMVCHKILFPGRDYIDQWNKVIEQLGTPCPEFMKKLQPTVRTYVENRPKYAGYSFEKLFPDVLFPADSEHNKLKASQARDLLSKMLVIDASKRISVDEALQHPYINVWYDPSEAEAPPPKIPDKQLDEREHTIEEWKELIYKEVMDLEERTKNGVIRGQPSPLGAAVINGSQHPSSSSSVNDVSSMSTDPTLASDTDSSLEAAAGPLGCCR
Chain of Mitogen-activated protein kinase 14 (Q16539 whole entry): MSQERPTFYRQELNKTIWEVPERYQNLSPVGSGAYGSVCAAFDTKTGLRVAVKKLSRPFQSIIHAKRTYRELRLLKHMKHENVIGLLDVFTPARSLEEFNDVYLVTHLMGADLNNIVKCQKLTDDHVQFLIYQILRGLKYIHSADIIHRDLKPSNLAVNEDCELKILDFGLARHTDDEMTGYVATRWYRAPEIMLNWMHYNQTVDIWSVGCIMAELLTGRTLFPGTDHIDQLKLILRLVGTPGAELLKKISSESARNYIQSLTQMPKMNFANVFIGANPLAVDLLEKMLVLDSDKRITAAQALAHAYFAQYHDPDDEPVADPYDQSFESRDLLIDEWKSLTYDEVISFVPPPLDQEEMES
Chain of Mitogen-activated protein kinase 10 (P53779 whole entry): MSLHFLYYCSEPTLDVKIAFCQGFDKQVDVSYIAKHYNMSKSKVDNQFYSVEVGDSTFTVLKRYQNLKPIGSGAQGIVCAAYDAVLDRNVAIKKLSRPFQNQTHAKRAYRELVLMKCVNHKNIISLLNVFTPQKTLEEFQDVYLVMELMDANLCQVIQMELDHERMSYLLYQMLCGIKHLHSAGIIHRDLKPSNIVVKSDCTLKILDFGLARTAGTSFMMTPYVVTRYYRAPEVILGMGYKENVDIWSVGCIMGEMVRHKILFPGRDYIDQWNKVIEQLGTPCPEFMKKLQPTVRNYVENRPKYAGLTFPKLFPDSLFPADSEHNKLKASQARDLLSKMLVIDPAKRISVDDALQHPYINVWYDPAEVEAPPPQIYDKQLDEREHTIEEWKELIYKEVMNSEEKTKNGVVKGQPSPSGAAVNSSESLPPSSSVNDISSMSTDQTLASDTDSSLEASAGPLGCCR
Chain of Mitogen-activated protein kinase 9 (P45984 whole entry): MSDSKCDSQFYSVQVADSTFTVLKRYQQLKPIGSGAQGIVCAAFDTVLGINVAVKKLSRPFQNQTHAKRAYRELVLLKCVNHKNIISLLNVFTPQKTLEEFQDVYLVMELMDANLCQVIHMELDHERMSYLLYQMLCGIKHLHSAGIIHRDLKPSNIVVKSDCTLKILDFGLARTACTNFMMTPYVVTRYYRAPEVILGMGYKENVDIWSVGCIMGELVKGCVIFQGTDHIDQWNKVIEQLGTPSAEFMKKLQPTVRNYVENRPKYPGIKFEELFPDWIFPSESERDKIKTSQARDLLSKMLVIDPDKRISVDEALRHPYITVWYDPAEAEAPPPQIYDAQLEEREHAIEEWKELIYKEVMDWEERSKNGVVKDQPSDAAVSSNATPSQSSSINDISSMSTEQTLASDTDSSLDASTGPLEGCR
Chain of CYP2D6 (P10635 whole entry): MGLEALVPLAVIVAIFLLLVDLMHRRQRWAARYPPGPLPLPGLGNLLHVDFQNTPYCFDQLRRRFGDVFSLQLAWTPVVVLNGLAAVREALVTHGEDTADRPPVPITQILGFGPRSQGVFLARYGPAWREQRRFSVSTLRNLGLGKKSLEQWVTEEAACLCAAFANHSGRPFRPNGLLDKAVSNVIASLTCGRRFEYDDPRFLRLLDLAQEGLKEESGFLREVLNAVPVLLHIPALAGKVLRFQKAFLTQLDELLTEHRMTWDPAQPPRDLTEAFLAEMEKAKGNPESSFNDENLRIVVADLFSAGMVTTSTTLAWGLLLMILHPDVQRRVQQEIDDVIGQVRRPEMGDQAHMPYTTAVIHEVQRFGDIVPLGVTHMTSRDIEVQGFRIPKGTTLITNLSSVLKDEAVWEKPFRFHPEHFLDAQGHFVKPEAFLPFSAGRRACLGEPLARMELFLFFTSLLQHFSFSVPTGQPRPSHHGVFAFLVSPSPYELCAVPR
Chain of CYP3A4 (P08684 whole entry): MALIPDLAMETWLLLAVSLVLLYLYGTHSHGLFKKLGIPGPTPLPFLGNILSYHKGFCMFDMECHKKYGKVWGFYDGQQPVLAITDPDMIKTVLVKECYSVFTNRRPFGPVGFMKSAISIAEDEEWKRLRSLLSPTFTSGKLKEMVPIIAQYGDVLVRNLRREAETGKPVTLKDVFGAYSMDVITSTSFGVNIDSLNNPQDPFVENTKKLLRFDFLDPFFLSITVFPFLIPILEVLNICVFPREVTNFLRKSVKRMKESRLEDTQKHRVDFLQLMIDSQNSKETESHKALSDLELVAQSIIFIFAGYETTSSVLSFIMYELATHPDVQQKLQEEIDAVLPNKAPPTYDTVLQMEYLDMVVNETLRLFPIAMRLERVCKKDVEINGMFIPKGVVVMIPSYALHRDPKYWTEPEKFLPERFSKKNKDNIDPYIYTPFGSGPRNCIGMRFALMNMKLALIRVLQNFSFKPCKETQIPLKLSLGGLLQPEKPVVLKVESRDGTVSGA
Chain of CYP2C9 (P11712 whole entry): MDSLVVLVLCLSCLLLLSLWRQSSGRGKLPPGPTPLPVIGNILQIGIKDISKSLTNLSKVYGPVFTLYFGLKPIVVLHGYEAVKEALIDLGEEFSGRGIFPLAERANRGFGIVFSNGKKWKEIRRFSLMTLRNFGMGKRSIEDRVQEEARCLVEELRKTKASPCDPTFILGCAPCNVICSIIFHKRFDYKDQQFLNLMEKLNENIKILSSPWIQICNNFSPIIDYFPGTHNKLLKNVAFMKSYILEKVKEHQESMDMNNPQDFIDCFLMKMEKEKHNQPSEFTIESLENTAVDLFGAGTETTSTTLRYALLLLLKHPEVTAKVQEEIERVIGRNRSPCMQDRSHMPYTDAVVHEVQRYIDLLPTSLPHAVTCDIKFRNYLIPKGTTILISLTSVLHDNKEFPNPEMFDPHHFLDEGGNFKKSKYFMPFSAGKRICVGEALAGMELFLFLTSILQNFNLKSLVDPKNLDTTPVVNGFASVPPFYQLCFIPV

The pIC50 is the IC50 on a negative log10 scale, so that one unit is a factor of ten. Regarding `[2H]C([2H])([2H])N1CC[C@H](NC(=O)c2cc(-n3ncc4cc(Nc5ccccc5Cl)c(F)cc43)cs2)C1`, the pIC50 in data set [1] is 8.30; in data set [2] it was 6.55; in data set [3] it was 6.52; in data set [4] it was more than 6.00.
For the compound `CC(C)N1CC[C@@H](NC(=O)c2cc(-n3ncc4cc(Nc5ccccc5Cl)ccc43)cs2)C1`, the pIC50 was 7.51 in data set [1], 6.08 in [2] and 6.49 in [3]. Besides, the Ratio IC50 came to 27 in data set [5] and 10 in data set [6].
For orientation: inhibition means the relative decrease from the control value, in per cent. Usually half-life stands for the time in which the quantity being followed falls by half. For the compound `O=C(NC1COC1)c1cc(-n2ncc3cc(Nc4ccccc4Cl)c(F)cc32)cs1`, the pIC50 is 7.85 in data set [1], 5.98 in data set [2], 5.88 in [7] and 6.40 in [3]. The Ratio IC50 in data set [5] came to 75; in data set [8], 95; in data set [6], 29. The inhibition at 10 µM in data set [9] is 4%; in [10], 41%; in [11] it was -16%; in data set [12] it was -56%. Further, the half-life was 92 min in data set [13] and 20 min in [14]. Moreover, the Cell viability in data set [15] came to 98%.
`O=C(NCC(F)F)c1cc(-n2ncc3cc(Nc4ccccc4Cl)c(F)cc32)cs1`: the values for the pIC50 in data set [1], in data set [2] and in [3] were 8.40, 6.48 and 7.34, respectively. For the same compound, the results for the Ratio IC50 in data set [5] and in data set [6] were 83 and 12, respectively.
For `CNC(=O)c1cc(-n2ncc3cc(Nc4ccccc4Cl)c(OC)cc32)cs1`, the pIC50 in [1] is 7.70; in data set [2], 5.96; in [3], 6.80. The Ratio IC50 stood at 55 in data set [5] and 8 in data set [6].
Consider `CNC(=O)c1cc(-n2ncc3cc(Nc4c(F)cccc4OC)c(F)cc32)cs1`, for which the negative logarithm of the IC50 (pIC50) in [1] is 8.30; in data set [2] it was 5.91; in data set [3], 7.19. For the same compound, the Ratio IC50 turned out to be 248 in [5] and 13 in data set [6].
For `CNC(=O)c1cc(-n2ncc3cc(Oc4ccccc4Cl)ccc32)cs1`, in data set [7], the pIC50 is 5.99. The half-life turned out to be 72 min in [13] and 15 min in [14]. In data set [15], the Cell viability is given as 94%.
As to `Cc1nc2c(cnn2-c2csc(C(=O)NC3COC3)c2)cc1Nc1cccc(F)c1Cl`, the pIC50 in [1] is 6.77; in [2], less than 5.00; in data set [3], 5.85. The Ratio IC50 was more than 59 in [5] and 8 in data set [6].
Taken in the same sequence, the figures for `CC(C)NC(=O)c1cc(-n2ncc3cc(Nc4ccccc4Cl)c(F)cc32)cs1` were 8.70, 6.40, 6.91, 200 and 62.
Take `CN1CC[C@H](NC(=O)c2cc(-n3ncc4cc(Nc5ccccc5Cl)c(F)cc43)cs2)C1`: the Ratio IC50 in data set [5] (tested as the 2H-labelled form) turned out to be 57; in data set [6] (tested as the 2H-labelled form), 60.
Regarding `Cc1nc2c(cnn2-c2csc(C(=O)NC3COC3)c2)cc1Nc1ccc(F)cc1Cl`, the pIC50 was 7.10 in [1], 5.22 in [2] and 6.31 in data set [3]. For the same compound, the Ratio IC50 in [5] is 76; in data set [6], 6.
Taken in the same sequence, the figures for `O=C(NC1COC1)c1cc(-n2ncc3cc(Nc4ccccc4Cl)ncc32)cs1` were 8.30, 6.16, 7.07, 139 and 17.
Regarding `CN1CC[C@H](NC(=O)c2cc(-n3ncc4cc(Nc5ccccc5Cl)ccc43)cs2)C1`, the values for the Ratio IC50 in [5] (tested as the 2H-labelled form) and in [6] (tested as the 2H-labelled form) were 263 and 226, respectively.
Turning to `O=C(NC1CC1)c1cc(-n2ncc3cc(Nc4ccccc4Cl)c(F)cc32)cs1`, the pIC50 was 9.00 in [1], 6.82 in [2] and 7.85 in data set [3]. Besides, the Ratio IC50 in [5] stood at 150; in data set [6] it was 14.
As for `Cc1nc2c(cnn2-c2csc(C(=O)NC3COC3)c2)cc1Nc1cc(F)ccc1Cl`, the pIC50 is 5.97 in data set [1], less than 5.00 in data set [2] and 5.54 in [3].
In the case of `[2H]C([2H])([2H])N1CC[C@H](NC(=O)c2cc(-n3ncc4cc(Nc5ccccc5Cl)ccc43)cs2)C1`, the negative logarithm of the IC50 (pIC50) in data set [1] is 9.00; in data set [2], 6.58; in data set [3], 6.65; in data set [4], more than 6.00.
On to `COCCNC(=O)c1cc(-n2ncc3cc(Nc4ccccc4Cl)c(F)cc32)cs1`, for which the pIC50 was 8.52 in data set [1], 6.77 in data set [2] and 7.39 in data set [3]. Further, the Ratio IC50 came to 56 in data set [5] and 14 in [6].
For `O=C(Nc1cnn(-c2csc(C(=O)NC3COC3)c2)c1)Nc1ccccc1Cl`, the pIC50 is less than 4.70 in data set [3] and less than 4.52 in [4]. For the same compound, the Cell viability in [15] was found to be 104%.
Take `CC(=O)N1CC[C@H](NC(=O)c2cc(-n3ncc4cc(Nc5ccccc5Cl)c(F)cc43)cs2)C1`: the pIC50 was 8.40 in data set [1], 6.20 in data set [2] and 7.19 in data set [3]. Besides, the Ratio IC50 in data set [5] was 132; in data set [6] it was 16.
With `CNC(=O)c1cc(-n2ncc3cc(Nc4c(F)cccc4Cl)ncc32)cs1`, the pIC50 in [1] was 8.70; in data set [2], 6.59; in data set [7] it was 7.13; in [3], 7.24. The Ratio IC50 in [5] was 130; in data set [8] it was 37; in data set [6], 28.
In the case of `CNC(=O)c1cc(-n2ncc3cc(Nc4cccc(OC)c4Cl)c(C)nc32)cs1`, the pIC50 in data set [1], in data set [2] and in [3] was less than 5.00 each time.
Consider `CNC(=O)c1cc(-n2ncc3cc(Nc4c(F)cccc4Cl)c(F)cc32)cs1`, for which the negative-log IC50 (pIC50) in [1] was 8.70; in [2], 6.59; in data set [7], 7.54; in [3], 7.62. Besides, the Ratio IC50 in data set [5] turned out to be 129; in data set [8], 15; in data set [6] it was 12.
On to `O=C(NC1COC1)c1cc(-n2ncc3nc(Nc4ccccc4Cl)ccc32)cs1`, for which the pIC50 in data set [1] was 7.00.
The same measure, in the same setting: to `CNC(=O)c1cc(-n2ncc3nc(Nc4ccccc4Cl)ncc32)cs1` belongs 6.00.
`O=C(NC1CCOCC1)c1cc(-n2ncc3cc(Nc4ccccc4Cl)c(F)cc32)cs1`: the pIC50 in [1] was 8.70; in data set [2] it was 6.92; in data set [3] it was 7.33. Also, the Ratio IC50 is 60 in [5] and 24 in data set [6].
For `O=C(Nc1cnn(-c2cccc(C(=O)Nc3cnn(C4CCNC4)c3)c2)c1)Nc1ccccc1Cl` (centres undefined), the values for the pIC50 in data set [1] and in data set [3] were more than 9.00 and less than 4.70, respectively.
As to `CNC(=O)c1cc(-n2ncc3cc(Nc4c(F)cccc4Cl)cnc32)cs1`, the pIC50 in [1] is 8.70; in data set [2], 6.67; in data set [7] it was 7.28; in [3] it was 6.97. Further, the half-life in data set [13] stood at 30 min; in [14] it was 22 min. Besides, in data set [15], the Cell viability was determined as 104%.
For `O=C(N[C@H]1CCOC1)c1cc(-n2ncc3cc(Nc4ccccc4Cl)c(F)cc32)cs1`, the values for the pIC50 in [1], in data set [2] and in data set [3] were 8.70, 6.75 and 7.62, respectively. The Ratio IC50 in [5] turned out to be 89; in [6] it was 12.
